# Values of other authors as cited in patent US20090075956A1 (priority 2005, published 2009).
# Where a name gives a salt, the structure may show the parent alone.
Compound,solubility in alcohol (alcohol),solubility in ether (ether),solubility in water,"solubility in organic solvents (organic solvents such as ethanol, ether and chloroform)"
"NNc1nncc2ccccc12 [Hydralazine hydrochloride, hydralazine hydrochloride]",slightly soluble,very slightly soluble,soluble,–
"O=[N+]([O-])O[C@H]1CO[C@H]2[C@@H]1OC[C@H]2O[N+](=O)[O-] [Diluted isosorbide dinitrate, 1,4,3,6-dianhydro-D-glucitol-2,5-dinitrate]",–,–,sparingly soluble,freely soluble
